{Atto647N} = Atto 647N fluorescent dye
Key:
[1] = Influx of fluorophore or ssDNA into GUVs with and without printed pore, confocal imaging; format: physicochemical; conditions: for influx into GUV containing a printed pore: GUV with printed hydrogel pore
Experimental: Representative confocal images of two adjacent GUVs (red, λex=488 nm) in the xy-(left) and an xz-plane (right, as indicated by white dashed line) are shown in FIG. 11c. […] The scalebar in the image of the xy-plane represents 20 μm.
Further representative confocal images of two adjacent GUVs, similar as described in FIG. 11c, are shown in FIG. 11d. […] The scalebar in the image of the xy-plane represents 20 μm.
Next, it was tested if the pores can transport larger and charged molecular cargo.
0.01 mg ml-1 Rhodamine B acrylate were added to the final solution for fluorescence microscopy.

[2] = Membrane permeability via fraction of successful printing attempts inside GUVs over time; conditions: not told
Experimental: The membrane permeability was determined by adding the respective components after incubation of the GUVs with the remaining components of the photoresist and quantifying the fraction of successful printing attempts, Nprint/Ntot, inside the GUVs over time (n=30 for each condition and time point). An exponential fit (black line) was used to determine the point in time of 50% success rate.
The resist was polymerized inside the GUV by two-photon 3D laser printing. […] The printing success rate was used as an indirect way to determine the membrane permeability of the non-fluorescent components. For this purpose, PEGDA or LAP was added to GUVs that were pre-incubated with the other resist components. Subsequently, the fraction of successful printing attempts, Npol/Ntot, was quantified for 30 GUVs per time point over the course of up to 100 minutes.
We use the interdependence of the permeability and the concentration inside of a GUV Cin [1] to determine the membrane permeability P via printing attempts:
where R is the GUV radius, Cout the concentration outside of the GUV and t the time.

Molecule | influx into GUV containing a printed pore [1] | influx into GUV containing a printed pore ([1]; listed as single-stranded DNA) | influx into adjacent GUV without printed pore ([1]; GUV without pore) | Papp at 12 mg mL-1 [2] [×10⁻⁶ cm/s]
5′-Atto 647N TTTTTTAATTTTT 3′ (DNA, 5' {Atto647N}, backbone not given here) [13 base-long single-stranded DNA, 13 base-long single-stranded DNA labelled with Atto647N] | can diffuse into the GUV across the printed pore | influx | does not show DNA import | –
Cc1cc(C)c(C(=O)P(=O)([O-])c2ccccc2)c(C)c1.[Li+] [LAP, Lithium phenyl-2,4,6-trimethylbenzoylphosphinate] | – | – | – | 0.0987 ± 0.0325
